From patent publication US5532234A, “Use of 1-[4-[4-aryl (or heteroaryl)-1-piperazinyl]-butyl)-1H-azole derivatives for the preparation of medicaments intended for the treatment of disorders of gastric secretion” (Laboratories Del Dr. Esteve, S.A., priority 1993, dated 1996)
Like-named read-outs stand apart in the source and are kept apart here.

System: gastric acid secretion
Experiment: Inhibitory activity on gastric acid secretion, Shay Method (pylorus-ligated rats)
Assay type: in vivo, male Wistar rats
Conditions: Rattus norvegicus, 2 h; for ED50: read-out: ED50 (inhibition of gastric acid secretion); for inhibition in vivo at 40 mg/kg: intraduodenal, read-out: Percentage of inhibition of gastric acid secretion
Description: Inhibitory activity on gastric acid secretion, Shay Method [Shay, H., Komarov, S. A., Fels, S. S., Merange, D., Grvenstein, M., Siplet, H.: Gastroenterology, 5, 43 (1945)--Visscher, F. E., Seay, P. H., Taxelaar, A. P., Veldhamp, W., Vander Brook, M. J.: J. Pharmac. Exp. Ther., 110, 188 (1954)--"Animal Experiments in Pharmacological Analysis", F. R. Domer; C. C. Thomas Pub, Springfield, Ill., USA, 1970, p. 140].
In this test, male Wistar rats weighing 200 to 250 grams are used, which rats are denied food from the day prior to that of the test, with free access to water. Batches which each contain at least 4 animals are used.
The rats are anesthetized with ethyl ether, a laparotomy is carried out on them and their pylori are ligatured, and then the abdominal incision is stitched up. Administration of the products, with the vehicle for the control batch, is carried out intraduodenally (i.d.) before stitching up the abdominal incision. The dose administered for the first test is 40 mg/kg and the 50% effective dose (ED50) by the i.d. route is also determined in a second test. The vehicle used is 5% w/v gum arabic in doubly-distilled water.
Two hours after ligaturing the pylorus, the rats are sacrificed by prolonged anesthesia with ethyl ether and the volume of the gastric juice is measured and the total acidity is determined using a pH meter equipped with an automatic burette. The percentage of inhibition of the gastric acid secretion is determined, with respect to the control batch, for each product and for each dose tested.
The results obtained for some of the derivatives of the present invention are summarized, as non-limiting examples, in Table II.

[1] = i.d. route, rats, Shay Method, two hours after pylorus ligature
[2] = Dose = 40 mg/kg, i.d. route, rats, Shay Method, two hours after pylorus ligature

Row | SMILES | ED50 [1] | inhibition in vivo at 40 mg/kg [2] | ED50 | inhibition in vivo at 40 mg/kg
1 | Cc1cc2ncn(CCCCN3CCN(c4ncccn4)CC3)c2cc1C [Example 24] | 36 mg/kg | 59% | – | –
2 | CCS(=O)(=O)Nc1cnn(CCCCN2CCN(c3ncccn3)CC2)c1 [Example 53] | 6.4 mg/kg | 90% | – | –
3 | c1cnc(N2CCN(CCCCn3cncn3)CC2)nc1 [Example 21] | 4.4 mg/kg | 71% | – | –
4 | c1cnc(N2CCN(CCCCn3ncc4ccccc43)CC2)nc1 [Example 29] | 21 mg/kg | 81% | – | –
5 | c1cnc(N2CCN(CCCCn3c4ccccc4c4ccccc43)CC2)nc1 [Example 2] | 46 mg/kg | 44% | – | –
6 | Clc1cccc(N2CCN(CCCCn3cc(Cl)cn3)CC2)c1 [Example 72] | 21 mg/kg | 88% | – | –
7 | c1ccc2c(c1)ncn2CCCCN1CCN(c2nsc3ccccc23)CC1 [Example 82] | 15 mg/kg | 53% | – | –
8 | Clc1ncn(CCCCN2CCN(c3ncccn3)CC2)c1Cl [Example 59] | 20 mg/kg | 75% | – | –
9 | O=[N+]([O-])c1cnn(CCCCN2CCN(c3ncccn3)CC2)c1 [Example 31] | 2.7 mg/kg | 90% | – | –
10 | Fc1cnn(CCCCN2CCN(c3ncccn3)CC2)c1 [Example 37] | 17 mg/kg | 79% | – | –
11 | c1ccc(-c2cn(CCCCN3CCN(c4ncccn4)CC3)cn2)cc1 [Example 15] | 36 mg/kg | 53% | – | –
12 | COc1ccccc1N1CCN(CCCCn2cccc2)CC1 [Example 66] | 27 mg/kg | 65% | – | –
13 | COc1cccc(N2CCN(CCCCn3cc(Cl)cn3)CC2)c1 [Example 64] | 20 mg/kg | 68% | – | –
14 | c1ccc(-c2nc(-c3ccccc3)n(CCCCN3CCN(c4ncccn4)CC3)c2-c2ccccc2)cc1 [Example 9] | 45 mg/kg | 35% | – | –
15 | c1cnc(N2CCN(CCCCn3cnc4ccccc43)CC2)nc1 [Example 16] | 25 mg/kg | 71% | – | –
16 | c1ccc(-c2ccc(-c3cnn(CCCCN4CCN(c5ncccn5)CC4)c3)cc2)cc1 [Example 45] | 12 mg/kg | 74% | – | –
17 | c1ccc(N2CCN(CCCCn3cccc3)CC2)cc1 [Example 67] | 8.7 mg/kg | 90% | – | –
18 | Cc1cc(-c2ccccc2)n(CCCCN2CCN(c3ncccn3)CC2)n1 [Example 34] | 50 mg/kg | 45% | – | –
19 | COc1ccccc1N1CCN(CCCCn2cc(Cl)cn2)CC1 [Example 62] | 13 mg/kg | 81% | – | –
20 | Clc1cnn(CCCCN2CCN(c3ccccc3)CC2)c1 [Example 68] | 13 mg/kg | 94% | – | –
21 | Clc1cnn(CCCCN2CCN(c3nsc4ccccc34)CC2)c1 [Example 79] | 20 mg/kg | 82% | – | –
22 | c1ccc(-c2cnn(CCCCN3CCN(c4ncccn4)CC3)c2)cc1 [Example 47] | 11 mg/kg | 88% | – | –
23 | c1cnc(N2CCN(CCCCn3ccc4ccccc43)CC2)nc1 [Example 3] | 30 mg/kg | 63% | – | –
24 | Clc1cnn(CCCCN2CCN(c3ncccn3)CC2)c1 [Example 32] | 15 mg/kg | 78% | – | –
25 | N#Cc1ccccc1N1CCN(CCCCn2cc(Cl)cn2)CC1 [Example 75] | 8.4 mg/kg | 94% | – | –
26 | CN/C(=N/CCSCc1nc[nH]c1C)NC#N [Cimetidine, reference compound] | – | – | 11.5 mg/kg | 69%
27 | Fc1ccccc1N1CCN(CCCCn2cc(Cl)cn2)CC1 [Example 78] | 10 mg/kg | 87% | – | –
28 | Cc1nn(CCCCN2CCN(c3ncccn3)CC2)c(C)c1[N+](=O)[O-] [Example 27] | 17 mg/kg | 63% | – | –

Row | SMILES | ED50 [1] | inhibition in vivo at 40 mg/kg [2] | ED50 | inhibition in vivo at 40 mg/kg
29 | O=C(O)c1cnn(CCCCN2CCN(c3ncccn3)CC2)c1 [Example 6] | 52 mg/kg | 41% | – | –
30 | Cc1nc(Cl)c(Cl)n1CCCCN1CCN(c2ccccc2F)CC1 [Example 74] | 5 mg/kg | 94% | – | –
31 | c1ccc2c(N3CCN(CCCCn4cncn4)CC3)nsc2c1 [Example 81] | 5.2 mg/kg | 82% | – | –
32 | Cc1cc(C(F)(F)F)n(CCCCN2CCN(c3ncccn3)CC2)n1 [Example 7] | 47 mg/kg | 40% | – | –
33 | c1ccc(-c2nccn2CCCCN2CCN(c3ncccn3)CC2)cc1 [Example 13] | 45 mg/kg | 44% | – | –
34 | N#Cc1cnn(CCCCN2CCN(c3ncccn3)CC2)c1 [Example 36] | 2.1 mg/kg | 78% | – | –
35 | COc1ccc(N2CCN(CCCCn3c(C)nc(Cl)c3Cl)CC2)cc1 [Example 61] | 13 mg/kg | 86% | – | –
36 | c1cnc(N2CCN(CCCCn3cccn3)CC2)nc1 [Example 25] | 21 mg/kg | 85% | – | –
37 | Brc1cnn(CCCCN2CCN(c3ncccn3)CC2)c1 [Example 35] | 11 mg/kg | 64% | – | –
38 | Cc1nc(-c2ccccc2)c(-c2ccccc2)n1CCCCN1CCN(c2ncccn2)CC1 [Example 10] | 19 mg/kg | 81% | – | –
39 | c1cnc(N2CCN(CCCCn3nnc4ccccc43)CC2)nc1 [Example 19] | 42 mg/kg | 49% | – | –
40 | Cc1nc(Cl)c(Cl)n1CCCCN1CCN(c2ccccc2C#N)CC1 [Example 73] | 4.2 mg/kg | 90% | – | –
41 | Cc1nc(Cl)c(Cl)n1CCCCN1CCN(c2cccc(C(F)(F)F)c2)CC1 [Example 76] | 2.1 mg/kg | 96% | – | –
42 | Cc1nc(Cl)c(Cl)n1CCCCN1CCN(c2nsc3ccccc23)CC1 [Example 80] | 7.1 mg/kg | 88% | – | –
43 | CCCS(=O)(=O)Nc1cnn(CCCCN2CCN(c3ncccn3)CC2)c1 [Example 52] | 40 mg/kg | 54% | – | –
44 | c1cnc(N2CCN(CCCCn3cc(-n4cccc4)cn3)CC2)nc1 [Example 46] | 9.5 mg/kg | 92% | – | –
45 | Cc1nc(Cl)c(Cl)n1CCCCN1CCN(c2ccccc2Cl)CC1 [Example 71] | 9.1 mg/kg | 73% | – | –
46 | COc1ccccc1N1CCN(CCCCn2c(C)nc(Cl)c2Cl)CC1 [Example 63] | 10 mg/kg | 89% | – | –
47 | CCc1nccn1CCCCN1CCN(c2ncccn2)CC1 [Example 12] | 52 mg/kg | 37% | – | –
48 | Cc1nc(Cl)c(Cl)n1CCCCN1CCN(c2ccccc2)CC1 [Example 69] | 7.6 mg/kg | 71% | – | –
49 | COc1ccc(N2CCN(CCCCn3cc(Cl)cn3)CC2)cc1 [Example 60] | 26 mg/kg | 63% | – | –
50 | FC(F)(F)c1cccc(N2CCN(CCCCn3cc(Cl)cn3)CC2)c1 [Example 77] | 9.2 mg/kg | 82% | – | –
51 | COc1ccc(-c2cnn(CCCCN3CCN(c4ncccn4)CC3)c2)cc1 [Example 44] | 31 mg/kg | 81% | – | –
52 | c1cnc(N2CCN(CCCCn3nc4ccccc4n3)CC2)nc1 [Example 22] | 34 mg/kg | 55% | – | –
53 | c1cnc(N2CCN(CCCCn3cnc4cccnc43)CC2)nc1 [Example 17] | 19 mg/kg | 63% | – | –
54 | Cc1nc(Cl)c(Cl)n1CCCCN1CCN(c2ncccn2)CC1 [Example 11] | 14 mg/kg | 81% | – | –
55 | c1cnc(N2CCN(CCCCn3cccc3)CC2)nc1 [Example 1] | 12 mg/kg | 90% | – | –
